Assay results: patent publication US12195482B1 (Arcus Biosciences, Inc., priority 2022, dated 2025)

Experiments:
[1] = target: T1, recombinant human MER (Homo sapiens, UniProt Q12866); experiment: Biochemical potency, HTRF KinEASE-TK kinase assay; conditions: 1 nM MER, 700 μM ATP
T1 construct: purchased Invitrogen
T1 sequence (Q12866 21-999): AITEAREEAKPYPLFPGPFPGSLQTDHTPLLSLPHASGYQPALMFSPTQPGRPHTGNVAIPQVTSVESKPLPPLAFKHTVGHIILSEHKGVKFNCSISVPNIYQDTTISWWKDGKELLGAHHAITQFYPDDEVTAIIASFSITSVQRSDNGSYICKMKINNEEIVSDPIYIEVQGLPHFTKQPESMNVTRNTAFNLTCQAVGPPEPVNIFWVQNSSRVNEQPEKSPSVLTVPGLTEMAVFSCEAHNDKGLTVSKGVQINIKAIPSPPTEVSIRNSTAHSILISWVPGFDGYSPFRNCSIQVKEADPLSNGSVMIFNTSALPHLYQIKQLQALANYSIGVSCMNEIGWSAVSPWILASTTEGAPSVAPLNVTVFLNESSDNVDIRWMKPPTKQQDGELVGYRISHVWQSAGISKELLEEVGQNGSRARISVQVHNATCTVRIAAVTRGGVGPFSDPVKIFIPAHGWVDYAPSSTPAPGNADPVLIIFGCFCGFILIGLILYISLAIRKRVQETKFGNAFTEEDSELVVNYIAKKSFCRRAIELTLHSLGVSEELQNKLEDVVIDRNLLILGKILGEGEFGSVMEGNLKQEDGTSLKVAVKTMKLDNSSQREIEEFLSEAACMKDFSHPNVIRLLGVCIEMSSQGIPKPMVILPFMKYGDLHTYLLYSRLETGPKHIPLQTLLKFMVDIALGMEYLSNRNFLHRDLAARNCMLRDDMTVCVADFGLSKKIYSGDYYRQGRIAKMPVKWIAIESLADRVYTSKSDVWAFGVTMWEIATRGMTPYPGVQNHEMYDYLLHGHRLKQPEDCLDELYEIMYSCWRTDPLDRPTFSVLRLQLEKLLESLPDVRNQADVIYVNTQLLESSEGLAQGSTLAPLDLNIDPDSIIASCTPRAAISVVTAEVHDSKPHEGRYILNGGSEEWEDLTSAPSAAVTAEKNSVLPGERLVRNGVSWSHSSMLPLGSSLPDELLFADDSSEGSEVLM
How it was run: (§1)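 Steps: compound plus kinase, 1 h RT; add ATP (700 µM final) and biotin-TK substrate (800 nM final); run 2 h RT; stop into streptavidin-XL665/anti-phospho cryptate detection mix, 1 h; read 665/620. AXL at 5 nM, TYRO3 and MER at 1 nM.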

[2] = target: T2, recombinant human TYRO3 (Homo sapiens, UniProt Q06418); experiment: Biochemical potency, HTRF KinEASE-TK kinase assay; conditions: 1 nM TYRO3, 700 μM ATP
T2 construct: purchased Invitrogen
T2 sequence (Q06418 41-890): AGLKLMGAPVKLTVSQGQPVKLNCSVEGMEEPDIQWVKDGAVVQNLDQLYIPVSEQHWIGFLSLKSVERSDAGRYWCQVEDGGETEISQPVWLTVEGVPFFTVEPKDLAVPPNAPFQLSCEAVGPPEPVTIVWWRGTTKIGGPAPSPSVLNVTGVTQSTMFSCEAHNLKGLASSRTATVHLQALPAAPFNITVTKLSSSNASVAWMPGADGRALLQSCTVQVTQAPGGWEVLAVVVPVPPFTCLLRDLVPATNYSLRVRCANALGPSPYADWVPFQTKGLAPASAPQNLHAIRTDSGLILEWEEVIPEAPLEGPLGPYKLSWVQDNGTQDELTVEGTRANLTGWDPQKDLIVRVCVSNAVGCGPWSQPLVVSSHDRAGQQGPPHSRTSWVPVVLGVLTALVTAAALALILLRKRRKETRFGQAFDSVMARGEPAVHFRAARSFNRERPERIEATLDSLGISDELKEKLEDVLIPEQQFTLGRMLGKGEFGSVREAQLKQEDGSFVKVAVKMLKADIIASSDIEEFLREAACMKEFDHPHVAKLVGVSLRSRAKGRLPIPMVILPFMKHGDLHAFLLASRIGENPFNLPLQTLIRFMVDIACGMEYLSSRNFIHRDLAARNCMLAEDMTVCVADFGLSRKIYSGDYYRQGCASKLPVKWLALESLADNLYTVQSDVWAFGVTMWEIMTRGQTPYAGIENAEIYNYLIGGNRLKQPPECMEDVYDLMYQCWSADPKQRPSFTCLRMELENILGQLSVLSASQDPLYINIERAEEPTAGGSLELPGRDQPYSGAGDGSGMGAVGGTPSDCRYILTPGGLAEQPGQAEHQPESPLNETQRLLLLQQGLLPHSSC
How it was run: as §1

**Q.** Which results are given for `Clc1cc(-c2c[nH]c3ncc(-c4ccc5c(c4)CC[C@@H](N4C6COCC4C6)CC5)cc23)ccc1-c1ccccn1` [Example 44, 6-[(7S)-2-{3-[3-Chloro-4-(pyridin-2-yl)phenyl]-1H-pyrrolo[2,3-b]pyridin-5-yl}-6,7,8,9-tetrahydro-5H-benzo[7]annulen-7-yl]-3-oxa-6-azabicyclo[3.1.1]heptane]?
**A.** IC50 [1]: 100 to 1000 nM; IC50 [2]: 100 to 1000 nM

**Q.** For `CS(=O)(=O)c1ccccc1-c1ccc(-c2c[nH]c3ncc(-c4ccc5c(c4)CC[C@@H](N4C6COCC4C6)CC5)cc23)cc1` [Example 93, 6-[(7S)-2-(3-{2′-Methanesulfonyl-[1,1′-biphenyl]-4-yl}-1H-pyrrolo[2,3-b]pyridin-5-yl)-6,7,8,9-tetrahydro-5H-benzo[7]annulen-7-yl]-3-oxa-6-azabicyclo[3.1.1]heptane], which IC50 [1] is on record?
**A.** The IC50 was 100 to 1000 nM.

**Q.** What about the IC50 [2] of the same compound?
**A.** Its IC50 is 100 to 1000 nM.

**Q.** With `Fc1cccnc1-c1ccc(-c2c[nH]c3ncc(-c4ccc5c(c4)CC[C@@H](N4C6COCC4C6)CC5)cc23)cc1` [Example 42, 6-[(7S)-2-{3-[4-(3-Fluoropyridin-2-yl)phenyl]-1H-pyrrolo[2,3-b]pyridin-5-yl}-6,7,8,9-tetrahydro-5H-benzo[7]annulen-7-yl]-3-oxa-6-azabicyclo[3.1.1]heptane] as the compound, how does the IC50 [1] read?
**A.** Its IC50 is 100 to 1000 nM.

**Q.** What about the IC50 [2] of the same compound?
**A.** Its IC50 is 100 to 1000 nM.

**Q.** How did the IC50 [1] turn out when `C[C@@H]1CCCN1[C@@]1(C)CCc2ccc(-c3cnc4[nH]nc(-c5ccc(-c6nccs6)cc5)c4c3)cc2CC1` [Example 91, 2-(4-{5-[(7S)-7-Methyl-7-[(2R)-2-methylpyrrolidin-1-yl]-6,7,8,9-tetrahydro-5H-benzo[7]annulen-2-yl]-2H-pyrazolo[3,4-b]pyridin-3-yl}phenyl)-1,3-thiazole] was run?
**A.** Its IC50 is 100 to 1000 nM.

**Q.** And the IC50 [2]?
**A.** Its IC50 is 100 to 1000 nM.

**Q.** How did the IC50 [1] turn out when `CN(C)C(=O)c1ccccc1-c1ccc(-c2c[nH]c3ncc(-c4ccc5c(c4)CC[C@@H](N4C6COCC4C6)CC5)cc23)cc1` [Example 92, N,N-Dimethyl-4′-{5-[(7S)-7-{3-oxa-6-azabicyclo[3.1.1]heptan-6-yl}-6,7,8,9-tetrahydro-5H-benzo[7]annulen-2-yl]-1H-pyrrolo[2,3-b]pyridin-3-yl}-[1,1′-biphenyl]-2-carboxamide] was run?
**A.** The IC50 was 100 to 1000 nM.

**Q.** What about the IC50 [2] of the same compound?
**A.** The IC50 was less than 100 nM.

**Q.** Which results are given for `c1ccc(-c2ccc(-c3c[nH]c4ncc(-c5ccc6c(c5)CC[C@@H](N5C[C@@H]7C[C@H]5CO7)CC6)cc34)cc2)nc1` [Example 33, (1S,4S)-5-[(7S)-3-[3-(4-Pyridin-2-ylphenyl)-1H-pyrrolo[2,3-b]pyridin-5-yl]-6,7,8,9-tetrahydro-5H-benzo[7]annulen-7-yl]-2-oxa-5-azabicyclo[2.2.1]heptane]?
**A.** IC50 [1]: 100 to 1000 nM; IC50 [2]: 100 to 1000 nM

**Q.** What does the source list for `c1cncc(-c2ccc(-c3n[nH]c4ncc(-c5ccc6c(c5)CC[C@@H](N5C7COCC5C7)CC6)cc34)cc2)c1` [Example 157, 6-[(7S)-2-{3-[4-(Pyridin-3-yl)phenyl]-2H-pyrazolo[3,4-b]pyridin-5-yl}-6,7,8,9-tetrahydro-5H-benzo[7]annulen-7-yl]-3-oxa-6-azabicyclo[3.1.1]heptane]?
**A.** IC50 [1]: > 1000 nM; IC50 [2]: > 1000 nM

**Q.** What does the source list for `N#Cc1cccnc1-c1ccc(-c2n[nH]c3ncc(-c4ccc5c(c4)CC[C@@H](N4C6COCC4C6)CC5)cc23)cc1` [Example 52, 2-(4-{5-[(7S)-7-{3-Oxa-6-azabicyclo[3.1.1]heptan-6-yl}-6,7,8,9-tetrahydro-5H-benzo[7]annulen-2-yl]-1H-pyrazolo[3,4-b]pyridin-3-yl}phenyl)pyridine-3-carbonitrile]?
**A.** IC50 [1]: 100 to 1000 nM; IC50 [2]: 100 to 1000 nM

**Q.** How did the IC50 [1] turn out when `Cc1cc(C)c(-c2ccc(-c3c[nH]c4ncc(-c5ccc6c(c5)CC[C@@H](N5C7COCC5C7)CC6)cc34)cc2)nn1` [Example 80, 6-[(7S)-2-{3-[4-(4,6-Dimethylpyridazin-3-yl)phenyl]-1H-pyrrolo[2,3-b]pyridin-5-yl}-6,7,8,9-tetrahydro-5H-benzo[7]annulen-7-yl]-3-oxa-6-azabicyclo[3.1.1]heptane] was run?
**A.** The IC50 was less than 100 nM.

**Q.** And the IC50 [2]?
**A.** Its IC50 is 100 to 1000 nM.

**Q.** Which IC50 [1] does the source give for `Cc1cnc(C)c(-c2ccc(-c3c[nH]c4ncc(-c5ccc6c(c5)CC[C@@](C)(N5CCC[C@H]5C)CC6)cc34)cc2)n1` [Example 58, 2,5-Dimethyl-3-(4-{5-[(7S)-7-methyl-7-[(2R)-2-methylpyrrolidin-1-yl]-6,7,8,9-tetrahydro-5H-benzo[7]annulen-2-yl]-1H-pyrrolo[2,3-b]pyridin-3-yl}phenyl)pyrazine] here?
**A.** Its IC50 is 100 to 1000 nM.

**Q.** What about the IC50 [2] of the same compound?
**A.** The IC50 was 100 to 1000 nM.

**Q.** How did the IC50 [1] turn out when `COc1cc(-c2c[nH]c3ncc(-c4ccc5c(c4)CC[C@@H](N4C6COCC4C6)CC5)cc23)ccc1-c1ccccn1` [Example 161, 6-[(7S)-2-{3-[3-Methoxy-4-(pyridin-2-yl)phenyl]-1H-pyrrolo[2,3-b]pyridin-5-yl}-6,7,8,9-tetrahydro-5H-benzo[7]annulen-7-yl]-3-oxa-6-azabicyclo[3.1.1]heptane] was run?
**A.** The IC50 was 100 to 1000 nM.

**Q.** What about the IC50 [2] of the same compound?
**A.** Its IC50 is 100 to 1000 nM.

**Q.** What does the source list for `c1cc(-c2ccc(-c3c[nH]c4ncc(-c5ccc6c(c5)CC[C@@H](N5C7COCC5C7)CC6)cc34)cc2)ccn1` [Example 41, 6-[(7S)-2-{3-[4-(Pyridin-4-yl)phenyl]-1H-pyrrolo[2,3-b]pyridin-5-yl}-6,7,8,9-tetrahydro-5H-benzo[7]annulen-7-yl]-3-oxa-6-azabicyclo[3.1.1]heptane]?
**A.** IC50 [1]: 100 to 1000 nM; IC50 [2]: > 1000 nM

**Q.** Which IC50 [1] does the source give for `Cc1cnc(-c2ccc(-c3c[nH]c4ncc(-c5ccc6c(c5)CC[C@@H](N5CCCC5)CC6)cc34)cc2)c(C)n1` [Example 59, 3,5-Dimethyl-2-(4-{5-[(7S)-7-(pyrrolidin-1-yl)-6,7,8,9-tetrahydro-5H-benzo[7]annulen-2-yl]-1H-pyrrolo[2,3-b]pyridin-3-yl}phenyl)pyrazine] here?
**A.** Its IC50 is 100 to 1000 nM.

**Q.** What about the IC50 [2] of the same compound?
**A.** Its IC50 is 100 to 1000 nM.

**Q.** Which IC50 [1] does the source give for `N#Cc1cccnc1-c1ccc(-c2c[nH]c3ncc(-c4ccc5c(c4)CC[C@@H](N4C6COCC4C6)CC5)cc23)cc1` [Example 46, 2-(4-{5-[(7S)-7-{3-Oxa-6-azabicyclo[3.1.1]heptan-6-yl}-6,7,8,9-tetrahydro-5H-benzo[7]annulen-2-yl]-1H-pyrrolo[2,3-b]pyridin-3-yl}phenyl)pyridine-3-carbonitrile] here?
**A.** The IC50 was 100 to 1000 nM.

**Q.** What about the IC50 [2] of the same compound?
**A.** Its IC50 is 100 to 1000 nM.

**Q.** What does the source list for `COc1cccc(-c2ccc(-c3n[nH]c4ncc(-c5ccc6c(c5)CC[C@@H](N5C7COCC5C7)CC6)cc34)cc2)n1` [Example 162, 6-[(7S)-2-{3-[4-(6-Methoxypyridin-2-yl)phenyl]-2H-pyrazolo[3,4-b]pyridin-5-yl}-6,7,8,9-tetrahydro-5H-benzo[7]annulen-7-yl]-3-oxa-6-azabicyclo[3.1.1]heptane]?
**A.** IC50 [1]: > 1000 nM; IC50 [2]: > 1000 nM

**Q.** Which IC50 [1] does the source give for `CC(C)(C#N)c1cccnc1-c1ccc(-c2n[nH]c3ncc(-c4ccc5c(c4)CC[C@@H](N4C6COCC4C6)CC5)cc23)cc1` [Example 85, 2-Methyl-2-[2-[4-[5-[(7S)-7-(3-oxa-6-azabicyclo[3.1.1]heptan-6-yl)-6,7,8,9-tetrahydro-5H-benzo[7]annulen-3-yl]-1H-pyrazolo[3,4-b]pyridine-3-yl]phenyl]pyridine-3-yl]propanenitrile] here?
**A.** Its IC50 is 100 to 1000 nM.

**Q.** And the IC50 [2]?
**A.** The IC50 was 100 to 1000 nM.
